The term Kd denotes the constant that tells how readily two partners part at equilibrium.

This test addresses T1, estrus urinary lipocalin protein (EULP).
T1 construct: gene PMP2; native, purified from female rat urine by Sephadex G-50 gel filtration; printed peptides MSNKFL, KFLGTWKLT, KLTSSENFD, NFDEYMKAL, LGTRSLGNL, LAGPTVIIS, ITIRTESGF, GFKNTEISF, FEETTADNR, RKTKSTVTL, KSTVTLAGG, NGNETTIKR, SVVCTRIYE
Nature of the test: fluorescence binding of 2-naphthol probe. Also noted: species or system Rattus rattus. Particulars: 10 mM phosphate buffer pH 7.2, room temperature; fluorescent probe.

The compound `Oc1ccc2ccccc2c1` [2-naphthol] came in with a Kd of 420 ± 60 nM.
